Laboratory results as given in US6790470B1, “Aspartame derivative crystal and process for producing the same” (Ajinomoto Co., Inc., priority 1998, dated 2004).

Experiments:
[1] = Inherent dissolution rate of tabletted dried crystals in ion exchanged water (Test Example 1); format: physicochemical; conditions: for amount of crystals dissolved: 300 mg tablet, 300 ml ion exchanged water, 20° C., 200 rpm
Method: Measurement of the Dissolution Rate for the Dried Crystals The dissolution rates of the A-type crystals (Reference Example 2(b)) and the C-type crystals (Example 1) were determined in the following method. That is, 300 mg each of the crystals were introduced into a tabletting mortar (tablet machine) with an internal diameter of 8 mm and a depth of 12 mm, and tabletted at 300 kg/cm2G with “High Pressure Jack J-1 type” (manufactured by Iuchi Seieido) to prepare a sample for measurement of dissolution rate. For measurement of the dissolution rate, the tabletting mortar with only the tabletting face exposed was introduced into 300 ml ion exchanged water kept at 20° C. at a stirring in the number of revolution of 200 rpm, and the inherent dissolution rate was determined using “DISSOLUTION TESTER” (NTR-6100) (manufactured by Toyama Sangyo K. K.).

[2] = Dissolution time, Japanese Pharmacopoeia Paddle method (Test Example 2); format: physicochemical; conditions: 0.5 g sample in 900 ml water (20° C.), 100 rpm, end point visually confirmed
Method: Measurement of the Dissolution Rates of the C-type Crystals (Original Powder) and Granules Thereof 0.5 g of the sample was introduced into 900 ml water (20° C.) in a 1-L elution tester (the Japanese Pharmacopoeia, Paddle method, 100 rpm) and its dissolution time was measured (end point was visually confirmed). That is, the C-type crystals (original powder with an average particle size of about 50 μm) obtained in Example 1 above and the granules (particle size of 100 to 500 μm and 500 to 1,400 μm) of C-type crystals obtained in Example 2 above were examined for measurements of their dissolution times in the same manner as described above.

[3] = weight ratio, cited from earlier work

Row | amount of crystals dissolved ([1]; 30 minutes) | amount of crystals dissolved ([1]; 60 minutes) | amount of crystals dissolved ([1]; 120 minutes) | dissolution time [2] | dissolution rate as compared with the A-type crystals ([1]; comparison with A-type crystals) | Structure (SMILES) | efficacy of sweetness relative to Aspartame ([3]; versus Aspartame) | efficacy of sweetness relative to sucrose ([3]; versus sucrose (table sugar))
1 | 17 mg | 34 mg | 69 mg | – | – | COC(=O)[C@H](Cc1ccccc1)NC(=O)[C@H](CC(=O)O)NCCC(C)(C)C [A-type crystals, N-[N-(3,3-dimethylbutyl)-L-α-aspartyl]-L-phenylalanine methyl ester, reference compound] | – | –
2 | 25 mg | 42 mg | 86 mg | 55 min | significantly improved dissolution rate | COC(=O)[C@H](Cc1ccccc1)NC(=O)[C@H](CC(=O)O)NCCC(C)(C)C [C-type crystals, N-[N-(3,3-dimethylbutyl)-L-α-aspartyl]-L-phenylalanine methyl ester] | – | –
3 | – | – | – | – | – | COC(=O)[C@H](Cc1ccccc1)NC(=O)[C@H](CC(=O)O)NCCC(C)(C)C [N-(3,3-dimethylbutyl)-APM, N-[N-(3,3-dimethylbutyl)-L-α-aspartyl]-L-phenylalanine methyl ester] | at least 50 times | about 10,000 times
